Test results from PubChem BioAssay (NCI).
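Tested at 5 concentrations; 48 h exposure; 96-well plates; endpoints linearly interpolated, else capped at highest concentration. TGI denotes the concentration required for complete inhibition of growth.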

Columns and labels:
Test in all cases: DTP human tumour cell line panel, 48 h
MDA-N = system: MDA-N
RXF 393 renal = system: RXF 393 renal
MALME-3M melanoma = system: MALME-3M melanoma
MDA-MB-435 = system: MDA-MB-435
SN12C renal = system: SN12C renal
LOX IMVI melanoma = system: LOX IMVI melanoma
UACC-62 melanoma = system: UACC-62 melanoma
OVCAR-3 ovarian = system: OVCAR-3 ovarian
MDA-MB-231 breast = system: MDA-MB-231 breast
LXFL 529 NSCLC = system: LXFL 529 NSCLC
M19-MEL melanoma = system: M19-MEL melanoma

Row | SMILES | TGI (MDA-N) [µM] | TGI (RXF 393 renal) [µM] | TGI (MALME-3M melanoma) [µM] | TGI (MDA-MB-435) [µM] | TGI (SN12C renal) [µM] | TGI (LOX IMVI melanoma) [µM] | TGI (UACC-62 melanoma) [µM] | TGI (OVCAR-3 ovarian) [µM] | TGI (MDA-MB-231 breast) [µM] | TGI (LXFL 529 NSCLC) [µM] | TGI (M19-MEL melanoma) [µM]
1 | Cc1c2c(n3c(nc4ccccc43)c1C#N)N(c1ccc(Cl)cc1)CC2 | > 100 | > 100 | > 100 | > 100 | > 100 | > 100 | > 100 | > 100 | > 100 | – | –
2 | CCOC(=O)C1(Cc2ccc(C)cc2)Cc2ccc(C)cc2C1=O (stereo not drawn) | 6.42 | 29.5 | > 97.1 | 12.2 | > 100 | > 65 | > 100 | > 100 | > 100 | – | –
3 | COc1c(C2(c3ccc(F)cc3)SCCCS2)c(=O)c1=O | > 100 | > 100 | > 100 | > 100 | > 100 | > 100 | > 100 | > 100 | > 100 | – | –
4 | c1ccc2[nH]c(-c3nc4ccccc4o3)nc2c1 | – | – | > 100 | – | > 100 | > 100 | – | > 100 | – | > 100 | > 100
5 | C[N+]1(C)C2Cc3ccccc3C1Cc1ccccc12 | > 100 | > 100 | > 100 | > 100 | > 100 | > 100 | > 100 | > 100 | > 100 | – | –
6 | C=CCN1C(=O)CS/C1=N\NC(=O)c1c(C)nc2sccn12 | – | > 100 | > 100 | – | > 100 | > 100 | > 100 | > 100 | – | > 100 | > 100
7 | Oc1c(Cl)c2nccnc2c2ccccc12 | – | > 100 | > 100 | – | > 100 | – | > 100 | > 100 | – | > 100 | > 100
8 | O=C1CC(NC(=O)C(F)(F)F)c2c(Br)sc(N3CCC(c4ccccc4)CC3)c21 (stereo not drawn) | > 100 | 88.3 | > 100 | > 100 | > 100 | > 100 | > 100 | 95.8 | 39.8 | – | –
9 | Cc1ccc(OP2(=O)Oc3ccc4ccccc4c3CN2c2ccc(Cl)cc2)cc1C (stereo not drawn) | – | > 100 | > 100 | – | > 100 | > 100 | > 100 | > 100 | – | – | > 100
10 | c1cnc2c(c1)-n1cccc1C1(CCOCC1)NN2 | – | > 100 | > 100 | – | > 100 | – | – | > 100 | – | > 100 | > 100
11 | COc1ccc(CN2C(=O)CCC/C=C\[C@H]2CI)cc1 | 25.8 | 17.2 | 24.4 | 25.2 | 27 | 34 | 22.6 | 23.7 | 23 | – | –
12 | Cc1ccc(-c2cc(-c3ccco3)nc(N)n2)o1 | – | > 100 | > 100 | – | > 100 | > 100 | > 100 | > 100 | – | > 100 | –
13 | Cc1cc(-c2ccc(C(=O)C(Cl)(Cl)Cl)[nH]2)on1 | > 100 | 41.9 | > 100 | 70.6 | 43.2 | > 100 | > 100 | 90.1 | 60.1 | – | –
14 | Cc1ccc(N=Nc2c(O)c3ccccc3[nH]c2=O)c(S(=O)(=O)N(C)C)c1 | > 100 | > 100 | > 100 | > 100 | > 100 | > 100 | > 100 | > 100 | > 100 | – | –
15 | CC(C)(C)C1CC[C@H]2c3c([nH]c4ccc(Br)cc34)[C@H]3C(=O)N(c4ccccc4)C(=O)[C@H]3[C@H]2C1 (stereo partly drawn) | – | > 100 | > 100 | – | 57.3 | > 100 | 87.4 | > 100 | – | 31.3 | 49.8
16 | C=C/C(C)=C/[C@H](C)C(=O)C[C@H](O)CC1CC(=O)NC(=O)C1 | – | > 100 | > 100 | – | > 100 | > 100 | > 100 | > 100 | – | – | > 100
